From patent US8173131B2, “Compositions and methods for modulating RSV infection and immunity” (PerkinElmer Health Sciences, Inc., priority 2000, dated 2012)

Key:
293 cells = assay: G glycoprotein and Fkn binding to untransfected 293 control cells by flow cytometry; parameters: species or system human; settings: for percent positive staining of 293 cells: 10 nM ligand, representative experiment, FIG. 1
Method: Purified G glycoprotein was examined for binding to 293-CX3CR1 cells^33. A pcDNA 3.1 plasmid containing the CX3CR1 gene and a neomycin resistance gene was used to stably transfect human embryonic kidney (HEK) cells. Neomycin resistance was used for selection and maintenance of plasmid transfection of human embryonic kidney cells.
All binding studies were done on ice and either G glycoprotein or human Fkn (R&D Diagnostics, Minneapolis, Minn.) were diluted between 1 nM-100 nM in PBS (GIBCO) containing 1% bovine serum albumin (Sigma) and incubated with the 293-CX3CR1 cells or 293 control cells for 30 min at 4° C. […] For inhibition studies, 100 pM-1 μM human Fkn or G glycoprotein was preincubated with the cells for 30 min at 4° C. Without washing, 100 pM of either Fkn or G glycoprotein was added and incubated for 30 min at 4° C. The cells were washed, blocked with FcγRIII blocking antibody (HB197) for 30 min on ice, washed and stained as appropriate with either an anti-G glycoprotein monoclonal antibody cocktail (132-5B, 132-5G, 130-2G, 232-IF) or a biotinylated anti-G glycoprotein monoclonal antibody cocktail (130-2G, 131-2G) or anti-Fkn monoclonal antibody (51637.11; R&D Diagnostics). Concentrations of 1 μg of anti-G glycoprotein monoclonal antibody (131-2G)^34, rabbit anti-CX3CR1 sera^33, and anti-CX3CR1 monoclonal antibody containing 10 μg/ml heparin were used in all experiments. […] Staining was detected with absorbed FITC-goat anti-mouse (H & L chain) monoclonal antibody (PharMingen, San Diego, Calif.) or streptavidin-PE (PharMingen) using flow cytometry (FACScan, Becton-Dickinson, Mountain View, Calif.). A 76 amino acid ^125I-Fkn polypeptide comprising the […] (NEN, Boston, Mass.) was used in radioligand studies^33. As a control, the void volume following purified G glycoprotein passaged over an anti-G glycoprotein antibody (130-2G) affinity column was examined by flow cytometry for binding to either 293 or 293-CX3CR1 cells.
The receptor for Fkn, CX3CR1, was previously identified and characterized using anti-CX3CR1 rabbit antiserum and CX3CR1-transfected human embryonic kidney cells (293-CX3CR1 cells)^33.

[1] = tested on: bronchoalveolar leukocytes (BAL); assay: BAL cell infiltration and cell types in RSV-infected mice following in vivo peptide treatment; parameters: species or system BALB/c mice; settings: in words; for total BAL numbers compared to mice treated with RT34, Δ−1 or PBS: day 3 pi; for course of BAL numbers: from day 3 to day 14 pi
Description: Total pulmonary leukocyte trafficking following treatment of mice with peptides containing a CX3C motif (RT33 and EYp1) (A) or peptides without a CX3C motif (RT34, Δ+1, Δ−1)(B).
Flow cytometry results following treatment (d−1) of mice with PBS, RT33, RT34, Δ+1, Δ−1 and EYp1 peptides (100 μm). BAL cells were stained with antibodies against B220^+ (A, D, G), CD3^+ (B, E, H) and CD11b^+ (C, F, I) cells. Data is expressed as the total BAL cells/lung±SEM at days 3, 5, 7 and 14 post-infection. A representative experiment from 3 independent experiments is shown.
Flow cytometry results following treatment (d−1) of mice with PBS, RT33, RT34, Δ+1, Δ−1 and EYp1 peptides (100 μm). BAL cells were stained with antibodies against NK (DX5^+) (A, C, E) and PMN (RB6-8C5^+) cells (B, D, F). Data is expressed as the total BAL cells/lung±SEM at days 3, 5, 7 and 14 post-infection. A representative experiment from 3 independent experiments is shown.
On day −1, prior to RSV infection, mice were i.p. treated (0.1 ml/mouse) with 100 μM of G glycoprotein peptides RT33 (CWAIC) (SEQ ID NO: 12), RT34 (lacks the CX3C motif) or peptides with changes in the CX3C motif (Δ+1, Δ−1, EYp1). Control mice were treated with PBS containing a similar dilution of DMSO used to solubilize the peptides.
Mice were anesthetized with Avertin and exsanguinated by severing the right caudal artery. Bronchoalveolar leukocyte (BAL) cells were harvested by lung lavage with PBS containing 1% bovine serum albumin (BSA, Sigma). The procedure used for extracellular staining of BAL cells was modified for microculture staining as described (55,57). Briefly, BAL cells were washed in Dulbecco's PBS (GIBCO) containing 1% bovine serum albumin (Sigma), blocked with 10% normal mouse sera diluted in PBS containing 1% bovine serum albumin, and then stained (4° C., 30 min) with an appropriate dilution of FITC-conjugated or PE-conjugated anti-CD3ε (145-2C11), anti-CD45R/B220 (RA3-6B2), anti-CD8 (Ly-2), anti-neutrophil (PMN) (RB6-8C5), anti-CD11b (M1/70) and isotype antibody controls (all from Pharmingen, San Diego, Calif.).

Molecule: Fkn: CX3C chemokine fractalkine (R&D), ligand of CX3CR1 [reference compound]
- percent positive staining of 293 cells (293 cells): 8%

Molecule: TCWAIACKRIPNK [Δ + 1]
- total BAL numbers compared to mice treated with RT34, Δ−1 or PBS [1]: reduced BAL infiltrate
- course of BAL numbers [1]: increased

Molecule: TCWAICKRIPNK [RT33]
- total BAL numbers compared to mice treated with RT34, Δ−1 or PBS [1]: reduced BAL numbers
- numbers of BAL cell types (B220+, CD3+, CD11b+, NK, PMN) ([1]; days 3, 5, 7 and 14 pi): reduced numbers of BAL cell types
- course of BAL numbers [1]: declined

B1: G glycoprotein: purified G glycoprotein isolated from RSV/A2-infected Vero cells (protein)
chain: MSKNKDQRTAKTLERTWDTLNHLLFISSCLYKLNLKSVAQITLSILAMIISTSLIIAAIIFIASANHKVTPTTAIIQDATSQIKNTTPTYLTQNPQLGISPSNPSEITSQITTILASTTPGVKSTLQSTTVKTKNTTTTQTQPSKPTTKQRQNKPPSKPNNDFHFEVFNFVPCSICSNNPTCWAICKRIPNKKPGKKTTTKPTKKPTLKTTKKDPKPQTTKSKEVPTTKPTEEPTINTTKTNIITTLLTSNTTGNPELTSQMETFHSTSSEGNPSPSQVSTTSEYPSQPSSPPNTPRQ
- percent positive staining of 293 cells (293 cells): 16%
- binding to 293 cells (293 cells; wheat germ lectin column fraction (G, F glycoprotein) or purified recombinant polyhistidine-tagged G glycoprotein): 18%
